*1 amine or outer side, *2 acyl side, *3 side chain or, on linkers, in order; H or OH if unused. Where a SMILES comes first, the peptide text is derived from it. [ ]: non-standard residue; d: D form. The star is where a group is joined. X1 = CC(C)(C)C(=O)CN1C(=O)[C@H](N*)CN(C2CCCCC2)c2ccccc21; pGlu = O=C1CC[C@@H](C(=O)O)N1; PEG3 = NCCOCCOCCOCCC(=O)O; 3Abz = Nc1cccc(C(=O)O)c1; X2 = NCCNCC(CNCCN)C(=O)*; CO = O=C([*:1])[*:2]

Assay [1] deals with T1, human CCK2R (Homo sapiens, UniProt P32239).
T1 construct: host or cells: HEK293 clone #21 (HEK293-hCCK2R/YC3.60), stably co-expressing the Ca2+ biosensor YC3.60
T1 sequence (P32239 1-447): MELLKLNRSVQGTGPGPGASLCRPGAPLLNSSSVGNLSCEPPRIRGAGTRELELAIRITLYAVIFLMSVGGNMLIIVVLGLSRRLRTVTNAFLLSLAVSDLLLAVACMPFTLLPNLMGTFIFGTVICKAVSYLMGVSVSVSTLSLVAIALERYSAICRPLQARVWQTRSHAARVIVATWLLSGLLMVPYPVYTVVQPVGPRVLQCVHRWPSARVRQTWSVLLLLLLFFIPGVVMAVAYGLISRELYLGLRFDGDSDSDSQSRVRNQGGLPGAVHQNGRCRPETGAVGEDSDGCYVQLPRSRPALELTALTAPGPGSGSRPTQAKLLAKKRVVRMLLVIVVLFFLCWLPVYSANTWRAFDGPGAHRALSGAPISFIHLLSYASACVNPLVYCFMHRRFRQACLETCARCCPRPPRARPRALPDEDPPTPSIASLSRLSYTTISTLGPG
Description: FRET-based Ca2+ mobilization assay in HEK293-hCCK2R/YC3.60 cells. The class given is cell-based. The procedure:
For most biological experiments, HEK293 cells transfected to stably express the human CCK2i4svR splice variant were used, kindly provided by Dr. P. Laverman (Radboud University Nijmegen Medical Center, Nijmegen, The Netherlands) and Prof. M. R. Hellmich (University of Texas Medical Branch, Galveston, TX, USA), while non-transfected wtHEK293 cells served as negative controls. Cells were cultured in DMEM with GlutaMAX-I supplemented with 10% (v/v) fetal bovine serum (FBS), 100 U/mL penicillin and 100 μg/mL streptomycin and kept in a controlled humidified air containing 5% CO2 at 37 °C; the medium for transfected cells was additionally supplemented with 400 μg/mL G418. All culture media were purchased from Gibco BRL, Life Technologies (Grand Island, NY, USA) and supplements were supplied by Biochrom KG Seromed (Berlin, Germany). For Ca^2+-mobilization assays, HEK293 cell clones (generated by O.G. Chepurny in the G.G. Holz laboratory) were transfected to stably co-express either both the human CCK2R and the Ca^2+ biosensor YC3.60 (clone #21) or only YC3.60 (clone #5, negative controls devoid of CCK2R expression) (Supplementary File). Ca^2+ mobilization assays were conducted by FRET-based detection of Ca^2+ in HEK293-hCCK2R/YC3.60 and HEK293-YC3.60 cells (negative controls) for GAS1/2/3 as well as for DG2, [Leu^15]gastrin-17 and Z360 (controls), as outlined in the Supplementary File. […]
Table S2. Analytical HPLC Data for (Radio)Metal-Tagged GAS1/2/3 (tR (min) gamma/UV trace). compound - [67Ga]Ga/[natGa]Ga [111In]In/[natIn]In [177Lu]Lu/[natLu]Lu […]
Purity as determined by HPLC exceeded 97% in all cases. system 1 was applied: RP-HPLC with twin UV detection at 220 nm and gamma detection; a Symmetry Shield RP18 column (5 μm, 3.9 mm × 150 mm) was eluted at a flow rate of 1 mL/min with linear gradient: 100%A/0% B to 70%A/30% B in 5 min and then 70%A/30% B to 55%A/45% B in 60 min, with A = 0.1% TFA in H2O (v/v) and B = MeCN.
Preparation of [natGa]Ga-GAS1/2/3, [natIn]In-GAS1/2/3 and [natLu]Lu-GAS1/3 To an Eppendorf Protein LoBind® centrifuge tube containing GAS1/2/3 precursor stock solution (60 μL, 120 μg, ≈60 nmol), a stock solution (60 μL, 2 mM, 120 nmol) of the respective nitrate salt dissolved in 1 M sodium acetate buffer of pH 4.0 (for gallium), 4.6 (for indium) and 5.0 (for lutetium) was added. The mixture was heated at 75 °C for 1 h. […]
action mixture using HPLC system 1, allowing for base line separation of metal-tagged from metal-free GAS1/2/3. Retention times (UV trace, tR in min) of all GAS species were included in Table S2. The metal-tagged GAS solutions were used as such in in vitro com-petition binding assays assuming a 0.5 mM CCK2R-ligand concentration.
Methods for FRET-based detection of Ca2+ in HEK293 cells were descri bed previ ousl y. The clone #21 HEK293 cell line (HEK293-hCCK2R/YC3.60) stably co-expressing the human CCK2R and the Ca2+ biosensor YC3.60 was generated a ccording to published methods. The clone #5 HEK293 cell line (HEK293-YC3.60) that expressed only YC3.60 served as a negative control and was generated in a similar matter. […] The human CCK2R (NM_176875) in pCMV6-Entry vector contained the receptor’s complete open reading frame with a Myc-DDK epitope tag (OriGene Technologies; Cat. No. R200676). Test compounds included human [Leu15]-gastrin- […]
For orientation: A change in cytosolic calcium serves as a functional read-out for many receptors and channels.

The target in assay [2] is T2, human CCK2i4svR splice variant (Homo sapiens, UniProt P32239).
T2 construct: expressed in transfected cells; membrane homogenates
T2 sequence (P32239 1-516 isoform P32239-2): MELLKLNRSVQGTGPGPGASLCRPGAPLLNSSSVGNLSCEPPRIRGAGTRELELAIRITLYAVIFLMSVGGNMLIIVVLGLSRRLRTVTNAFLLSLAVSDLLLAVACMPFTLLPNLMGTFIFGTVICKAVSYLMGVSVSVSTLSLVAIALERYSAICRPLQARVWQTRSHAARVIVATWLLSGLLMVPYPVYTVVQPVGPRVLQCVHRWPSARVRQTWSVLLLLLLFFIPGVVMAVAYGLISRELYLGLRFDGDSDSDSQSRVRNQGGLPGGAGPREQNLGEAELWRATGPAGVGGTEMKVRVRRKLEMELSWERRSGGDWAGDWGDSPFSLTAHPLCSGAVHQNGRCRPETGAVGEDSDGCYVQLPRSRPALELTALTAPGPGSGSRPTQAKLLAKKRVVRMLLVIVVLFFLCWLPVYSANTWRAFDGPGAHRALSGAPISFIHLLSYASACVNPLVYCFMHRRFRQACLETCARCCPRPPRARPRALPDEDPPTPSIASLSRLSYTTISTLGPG
Description: Competition binding against [125I][I-Tyr12,Leu15]gastrin-17 in HEK293-CCK2i4svR cell membranes. Conditions: vs [125I][I-Tyr12,Leu15]gastrin-17, HEK293-CCK2i4svR cell membranes, 1 h 22 °C; mean ± SD. How it is done: Competition binding assays for the metal-free GAS1/2/3 and the corresponding metal-tagged [^natGa]Ga/[^natIn]In/[^natLu]Lu-GAS1/3 and [^natGa]Ga/[^natIn]In-GAS2 analogs were conducted against the [^125I][I-Tyr^12,Leu^15]gastrin-17 radioligand in membrane homogenates harvested from HEK293-CCK2i4svR cells, as previously described. Briefly, each of the above analogs, or unmodified Z360 serving as control, was incubated in triplicates of increasing concentrations (10^−13–10^−6 M) with [^125I][I-Tyr^12,Leu^15]gastrin-17 (50 pM, ≈40,000 cpm) and membrane homogenate in binding buffer (300 µL, pH 7.4, 50 mM HEPES, 1% BSA, 5.5 mM MgCl2, 35 µM bacitracin) for 1 h at 22 °C. Incubation was interrupted by rapid filtration through glass fiber filters (Whatman GF/B, presoaked in binding buffer for at least 1 h) on a Brandel Cell Harvester (Adi Hassel Ingenieur Büro, Munich, Germany) and subsequent rinsing with ice-cold washing buffer (10 mM HEPES pH 7.4, 150 mM NaCl). The radioactivity content of individual filters was measured in a gamma counter (automated multi-sample well-type instrument with a NaI(Tl) 3′ crystal, Canberra Packard Cobra^TM Quantum U5003/1, Auto-Gamma® counting system). The 50% inhibitory concentration (IC50) was determined by nonlinear regression analysis according to a one-site model using PRISM 6 (Graph Pad Software, San Diego, CA, USA). Values are expressed as mean ± standard deviation (SD) of three independent experiments performed in triplicate.

In assay [3] the target is T1, human CCK2R. Details: method as in PMID 32568549. As to conditions: cited from earlier work.
The subject of assay [4] is HEK293-YC3.60 cells. In words: FRET-based Ca2+ mobilization assay in HEK293-YC3.60 cells (negative controls devoid of CCK2R). Conditions: HEK293-YC3.60 clone #5. The class given is cell-based, human. The procedure:
For most biological experiments, HEK293 cells transfected to stably express the human CCK2i4svR splice variant were used, kindly provided by Dr. P. Laverman (Radboud University Nijmegen Medical Center, Nijmegen, The Netherlands) and Prof. M. R. Hellmich (University of Texas Medical Branch, Galveston, TX, USA), while non-transfected wtHEK293 cells served as negative controls. Cells were cultured in DMEM with GlutaMAX-I supplemented with 10% (v/v) fetal bovine serum (FBS), 100 U/mL penicillin and 100 μg/mL streptomycin and kept in a controlled humidified air containing 5% CO2 at 37 °C; the medium for transfected cells was additionally supplemented with 400 μg/mL G418. […]
Purity as determined by HPLC exceeded 97% in all cases. system 1 was applied: RP-HPLC with twin UV detection at 220 nm and gamma detection; a Symmetry Shield RP18 column (5 μm, 3.9 mm × 150 mm) was eluted at a flow rate of 1 mL/min with linear gradient: 100%A/0% B to 70%A/30% B in 5 min and then 70%A/30% B to 55%A/45% B in 60 min, with A = 0.1% TFA in H2O (v/v) and B = MeCN. […]
Methods for FRET-based detection of Ca2+ in HEK293 cells were descri bed previ ousl y. […] The human CCK2R (NM_176875) in pCMV6-Entry vector contained the receptor’s complete open reading frame with a Myc-DDK epitope tag (OriGene Technologies; Cat. No. R200676). […]

As to `CC(C)(C)C(=O)CN1C(=O)C(NC(=O)Nc2cccc(C(=O)O)c2)CN(C2CCCCC2)c2ccccc21` (centres unmarked) [Z360], the “Concentration threshold for agonistic properties (Ca2+ mobilization)” value (“Concentration threshold” for short) in assay [1] is above 100 nM. The compound further gave an IC50 in assay [2] of 1.2 ± 0.5 nM.

As to `CC(C)(C)C(=O)CN1C(=O)[C@H](NC(=O)Nc2cccc(C(=O)NCCOCCOCCOCCNC(=O)[C@H](CCC(=O)O)NC(=O)CN3CCN(CC(=O)O)CCN(CC(=O)O)CCN(CC(=O)O)CC3)c2)CN(C2CCCCC2)c2ccccc21` [GAS1, DOTA-DGlu-HN(PEG3)NH-Z360], the “Concentration threshold” value in assay [1] is given as above 100 nM. The compound also yielded an IC50 in assay [2] of 5.9 ± 1.8 nM.

`CC(C)(C)C(=O)CN1C(=O)[C@H](NC(=O)Nc2cccc(C(=O)NCCOCCOCCOCCNC(=O)[C@H](CCC(=O)O)NC(=O)CCC(C(=O)O)N3CCN(CC(=O)O)CCN(CC(=O)O)CC3)c2)CN(C2CCCCC2)c2ccccc21` (some centres unmarked) [GAS2, NODAGA-DGlu-HN(PEG3)NH-Z360]: in assay [1], the “Concentration threshold” value is above 100 nM. Also, the IC50 in assay [2] is 4.1 ± 1.1 nM.

On to `CC(C)(C)C(=O)CN1C(=O)[C@H](NC(=O)Nc2cccc(C(=O)NCCOCCOCCOCCNC(=O)[C@H](CCC(=O)O)NC(=O)CCC(C(=O)O)N3CCN(CC(=O)O)CCN(CC(=O)O)CCN(CC(=O)O)CC3)c2)CN(C2CCCCC2)c2ccccc21` (some centres unmarked) [GAS3, DOTAGA-DGlu-HN(PEG3)NH-Z360], for which the “Concentration threshold” value in assay [1] is above 100 nM. Moreover, the IC50 in assay [2] worked out at 3.1 ± 1.5 nM.

Regarding `CC(C)(C)C(=O)CN1C(=O)[C@H](NC(=O)Nc2cccc(C(=O)NCCOCCOCCOCCC(=O)N[C@H](CCC(=O)O)C(=O)N[C@H](CCC(=O)O)C(=O)N[C@H](CCC(=O)O)C(=O)N[C@H](CCC(=O)O)C(=O)N[C@@H](CCCCNC(=O)C(CNCCN)CNCCN)C(=O)O)c2)CN(C2CCCCC2)c2ccccc21` [DGA1, Z360-PEG3-DGlu-DGlu-DGlu-DGu-Lys(N4)−OH] ({X1-CO-3Abz-PEG3}-[dE][dE][dE][dE]K(X2)-OH), in assay [3], the “Functional profile at the CCK2R” value is listed as “pure antagonist profile”.

Turning to `CC(C)C[C@H](NC(=O)[C@H](Cc1c[nH]c2ccccc12)NC(=O)CNC(=O)[C@H](Cc1ccc(O)cc1)NC(=O)[C@H](C)NC(=O)[C@H](CCC(=O)O)NC(=O)[C@H](CCC(=O)O)NC(=O)[C@H](CCC(=O)O)NC(=O)[C@H](CCC(=O)O)NC(=O)[C@H](CCC(=O)O)NC(=O)[C@H](CC(C)C)NC(=O)[C@H](Cc1c[nH]c2ccccc12)NC(=O)[C@@H]1CCCN1C(=O)CNC(=O)[C@@H]1CCC(=O)N1)C(=O)N[C@@H](CC(=O)O)C(=O)N[C@@H](Cc1ccccc1)C(N)=O` [[Leu^15]gastrin-17, pGlu-Gly-Pro-Trp-Leu-(Glu)5-Ala-Tyr-Gly-Trp-Leu-Asp-Phe-NH2, reference compound] ([pGlu]GPWLEEEEEAYGWLDF-NH2), the “Ca2+ response in cells devoid of CCK2R expression” value in assay [4] is recorded as “failed to respond”. Moreover, the “Concentration at which the CCK2R is activated (Ca2+ mobilization)” value in assay [1] is on record as 100 pM.

The term IC50 denotes the concentration at which inhibition is half-maximal. Lower therefore signals inhibition by little substance.

Source of the values: PMC8954547, “Nonpeptidic Z360-Analogs Tagged with Trivalent Radiometals as Anti-CCK2R Cancer Theranostic Agents: A Preclinical Study” (Pharmaceutics, 2022).
